# Positions count from the first letter of the chain named. pKd: −log10 of the molar value. Where a SMILES comes first, the peptide text is derived from it. [ ]: non-standard residue; d: D form. dLac(3-vinyl) = C=CC[C@@H](O)C(=O)O; NMeV = CN[C@H](C(=O)O)C(C)C; NMeA = CN[C@@H](C)C(=O)O; βAla = NCCC(=O)O
# Experiments:
# Test in all cases: bio-layer interferometry, immobilised protein
# Format in all cases: binding
# [1] = target: T1, BmArgRS (Bombyx mori, UniProt A0A8R1WK71, V468A)
# T1 construct: gene 101737924; apparently full length (catalytic core 216-481)
# T1 sequence (A0A8R1WK71 1-683 V468A): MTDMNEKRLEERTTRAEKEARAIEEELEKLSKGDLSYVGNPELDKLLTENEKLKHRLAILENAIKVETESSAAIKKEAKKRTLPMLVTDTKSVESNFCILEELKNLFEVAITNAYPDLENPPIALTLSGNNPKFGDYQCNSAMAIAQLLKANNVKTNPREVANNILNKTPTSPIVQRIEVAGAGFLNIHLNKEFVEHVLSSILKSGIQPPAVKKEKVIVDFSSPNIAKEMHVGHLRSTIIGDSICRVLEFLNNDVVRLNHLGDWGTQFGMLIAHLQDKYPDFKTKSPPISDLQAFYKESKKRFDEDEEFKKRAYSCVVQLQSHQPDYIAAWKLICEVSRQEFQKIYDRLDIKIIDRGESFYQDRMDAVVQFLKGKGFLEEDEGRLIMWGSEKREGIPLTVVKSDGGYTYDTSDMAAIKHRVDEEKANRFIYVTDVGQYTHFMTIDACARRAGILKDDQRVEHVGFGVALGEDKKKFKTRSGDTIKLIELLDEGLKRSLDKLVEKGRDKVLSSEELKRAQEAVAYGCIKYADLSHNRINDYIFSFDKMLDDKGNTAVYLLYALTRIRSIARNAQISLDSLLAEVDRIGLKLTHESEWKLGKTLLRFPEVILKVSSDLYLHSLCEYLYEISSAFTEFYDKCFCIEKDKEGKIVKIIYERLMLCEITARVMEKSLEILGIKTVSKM
# [2] = target: T2, BmArgRS (Bombyx mori, UniProt A0A8R1WK71, K475A)
# T2 construct: gene 101737924; apparently full length (catalytic core 216-481)
# T2 sequence (A0A8R1WK71 1-683 K475A): T1 sequence (A0A8R1WK71 1-683 V468A) with A468V, K475A
# [3] = target: T3, BmArgRS (Bombyx mori, UniProt A0A8R1WK71)
# T3 construct: gene 101737924; apparently full length (catalytic core 216-481)
# T3 sequence (A0A8R1WK71 1-683): T1 sequence (A0A8R1WK71 1-683 V468A) with A468V
# Source text: bio-layer interferometry, immobilised protein on BmArgRS
smiles,measurement,setting,value
C=CC[C@H]1OC(=O)CCNC(=O)[C@H](C)N(C)C(=O)[C@H](C(C)C)N(C)C(=O)[C@H]([C@@H](C)CC)NC(=O)[C@@H]2CCCN2C1=O [Destruxin A] (cyclo(I[NMeV][NMeA][βAla][dLac(3-vinyl)]P)),pKd,[1],4.28
same,pKd,[2],5.24
same,pKd,[3],4.26

# Source: paper PMC7076788, “Interactions of Destruxin A with Silkworms’ Arginine tRNA Synthetase and Lamin-C Proteins” (Toxins, 2020)
